“And” between values parts separate entries of the source, which are not always exact repeats. Identical values can stand only once. Counter-ions that a name gives are not always drawn.
Key:
[1] = tested on: VASP Ser239 phosphorylation; assay: Immunoblotting of phospho-VASP (Ser239) in ADP-stimulated washed platelets, with or without PKA, PKG, PKC inhibitors; format: cell-based, rat; conditions: ADP 10 μmol/L
Procedure: For in vitro platelet aggregation, aliquots of washed platelets were preincubated with vehicle or various concentrations of naringenin for 5 min and stimulated with ADP (10 μmol/L) under stirring at 37°C for 5 min. For ex vivo platelet aggregation, PRP was incubated at 37°C for 5 min and stimulated with ADP (5 μmol/L) under stirring at 37 °C. The platelet aggregation was terminated by adding ethylenediaminetetraacetic acid (EDTA; 10 mM). Total protein was prepared using RIPA lysis buffer and protein content was determined by bicinchoninic acid (BCA) protein assay kit. Equal amounts of platelet proteins (30 μg) were separated on 10% SDS polyacrylamide gel electrophoresis (SDS-PAGE) and then transferred to poly vinylidene difluoride (PVDF) membranes and subjected to western blot. Blots were blocked with TBS-Tween 20 containing 5% BSA and probed with primary antibodies diluted in blocking solution at 4°C overnight followed by incubation with the corresponding HRP secondary antibodies. The protein bands were visualized using enhanced chemiluminescence (ECL).
VASP is a substrate for cAMP- and cGMP- dependent protein kinases, which mediate cAMP- and cGMP-dependent inhibitory signaling in platelets, respectively. Increased cAMP levels followed by the activation of cAMP-dependent protein kinase A (PKA) phosphorylates VASP at position Ser157, whereas the elevation of cGMP leads to VASP phosphorylation at position Ser239 by cGMP-dependent protein kinase G (PKG) ([Aszódi et al., 1999]; [Li et al., 2003a]). To further examine whether naringenin modulates cAMP- or cGMP-mediated inhibitory signaling, the phosphorylation of VASP (Ser157 and Ser239) in washed platelets on stimulation with ADP were measured in the absence or presence of naringenin (100, 200, 400, and 800 μM). […] To further confirm the antiplatelet effects of naringenin through PKA-dependent signaling, the effects of naringenin on platelet aggregation were measured in the presence of PKG inhibitor (Rp-8-Br-PET-cGMPS) and PKA inhibitor (H89).
FIGURE 7 Naringenin promotes VASP phosphorylation. The effects of naringenin on phosphorylation of VASP (at positions Ser 157 and Ser239) were measured in washed platelets upon stimulation with ADP (10 μmol/L) by western blotting (A). The blots shown are representative of three separate experiments. The phosphorylation levels were quantified by ImageJ 1.47v software. The level of phosphorylation obtained with vehicle control (0 μM) was taken as 1 (B,C). R represents the phosphorylation level in resting platelets. Data are expressed as means ± SD (n = 3). *p < 0.05, ***p < 0.001 compared with the vehicle control group. VASP phosphorylation at Ser239 was also analyzed in washed platelets incubated with 5 μmol/L PKA (H89), 30 μmol/L PKG (Rp-8-Br-PET-cGMPS), or 5 μmol/L PKC (GF109203X) inhibitors before treatment with naringenin (D). Washed platelets were incubated with vehicle or naringenin (200 μmol/L) at 37°C in the presence or absence of 5 μmol/L PKA (H89) or 30 μmol/L PKG (Rp-8-Br-PET-cGMPS) inhibitors. After treatment, platelets were stimulated with ADP (10 μmol/L) to trigger aggregation (E). Data are expressed as means ± SD (n = 6). ***p < 0.001 compared with the ADP-treated group, ^# p < 0.05, ^### p < 0.001 compared with naringenin alone or H89 alone.

[2] = tested on: washed rat platelets; assay: ADP (10 μM)-induced aggregation of washed rat platelets; format: cell-based; conditions: Figure 7E
[3] = tested on: washed rat platelets; assay: as above; format: cell-based; conditions: for platelet aggregation when incubated with naringenin after kinase inhibitor: naringenin 200 μmol/L; for Aggregation (%): raw data
Procedure: Platelet-rich plasma (PRP) was obtained, and after the addition of 100 ng/ml PGE1, platelets were pelleted at 900 × g for 10 min. […] Washed platelets were preincubated with vehicle (0.4% dimethyl sulfoxide) or various concentrations of naringenin in the presence of 2 mM CaCl2 for 5 min at 37°C, and then further stimulated by ADP (10 μM), thrombin (0.2 U/mL) or collagen (2 μg/ml). The maximum platelet aggregation rate was detected within 5 min with continuous stirring.
Platelet aggregation was induced by ADP using washed platelets and PRP. Washed platelets were preincubated with vehicle (containing 0.4% DMSO) or different doses (100, 200, 400, and 800 μM) of naringenin or naringin for 5 min before activation with ADP (10 μM) for 5 min.
(§1) FIGURE 1 Effects of naringenin and naringin on platelet aggregation. Chemical structure of naringin (A) and naringenin (B). The effects of naringin (C) or naringenin (D) on PRP were measured following stimulation with 10 μmol/L ADP. Rat washed platelet aggregation performed with or without different concentrations of naringin (E) or naringenin (F) was recorded after stimulation with 10 μmol/L ADP. Similarly, Washed platelet aggregation performed with vehicle or various concentrations of naringenin was recorded after stimulation with 0.2 U/mL thrombin (G) or 2 μg/ml collagen (H). WP represents washed platelets. Data are expressed as means ± SD (n = 6), the level of aggregation obtained at 5 min with vehicle-treated samples (0 μM) was taken as 100%. *p < 0.05, **p < 0.01, ***p < 0.001 compared with the vehicle control group.

[4] = tested on: PRP (platelet-rich plasma); assay: ADP (10 μmol/L)-induced aggregation of PRP in vitro; format: cell-based, rat; conditions: PRP, ADP 10 μmol/L, single replicates; for Aggregation (%): raw data
Procedure: Washed rat platelets were prepared as described previously ([Gao et al., 2011]) with a minor modification. Briefly, rat blood was drawn from the abdominal aorta into the siliconized vacutainers containing 1:9 (v/v) 3.8% sodium citrate, supplemented with 100 ng/ml prostaglandin E1 (PGE1) and centrifuged at 300 × g for 6 min at room temperature. Platelet-rich plasma (PRP) was obtained, and after the addition of 100 ng/ml PGE1, platelets were pelleted at 900 × g for 10 min. Platelets were washed once in Tyrode’s buffer (12 mM NaHCO3, 138 mM NaCl, 5.5 mM glucose, 2.9 mM KCl, 2 mM MgCl2, 0.42 mM NaH2PO4, 10 mM HEPES, pH 7.4) containing 100 ng/ml PGE1, and finally resuspended in Tyrode’s buffer containing 0.02 U/mL apyrase to a final concentration of 4×10^8 cells/mL. Washed platelets were preincubated with vehicle (0.4% dimethyl sulfoxide) or various concentrations of naringenin in the presence of 2 mM CaCl2 for 5 min at 37°C, and then further stimulated by ADP (10 μM), thrombin (0.2 U/mL) or collagen (2 μg/ml). The maximum platelet aggregation rate was detected within 5 min with continuous stirring.
Platelet aggregation was induced by ADP using washed platelets and PRP. Washed platelets were preincubated with vehicle (containing 0.4% DMSO) or different doses (100, 200, 400, and 800 μM) of naringenin or naringin for 5 min before activation with ADP (10 μM) for 5 min. […] For example, naringenin, at doses of 100 and 800 μM, decreased ADP-induced platelet aggregation to 54.5 ± 6.2% and 6.3 ± 1.7%, respectively (n = 6; p < 0.001, control group platelet aggregation was taken as 100%) (Figure 1F). […] Because dietary flavonoids have been reported to bind plasma proteins and cause the lowering of inhibitory potency in PRP ([Wright et al., 2013]), the ability of naringenin and naringin on platelet function in PRP was investigated to compare their effects with washed platelets.
as §1

[5] = inhibitor 5 μmol/L before treatment with naringenin

SMILES: CN(C)CCCn1cc(C2=C(c3c[nH]c4ccccc34)C(=O)NC2=O)c2ccccc21 [GF109203X, reference compound]
- naringenin-induced phosphorylation of VASP at Ser239 after kinase inhibitor [1, 5]: only small changes

SMILES: O=S(=O)(NCCNCC=Cc1ccc(Br)cc1)c1cccc2cnccc12 [H89, N-[2-(p-bromocinnamylamino)ethyl]-5-isoquinolinesulfonamide]
- naringenin-induced phosphorylation of VASP at Ser239 after kinase inhibitor [1, 5]: inhibited the increase in phosphorylation of VASP at Ser239
- Aggregation (%) ([2]; H89 (5 μM)+ADP (10 μM)): 62.7% and 67.1% and 68.1% and 68.8% and 64.1% and 69.2%
- level of platelet aggregation, inhibitor alone ([3]; ADP 10 μmol/L, inhibitor 5 μmol/L, without naringenin): did not affect the level of platelet aggregation
- platelet aggregation when incubated with naringenin after kinase inhibitor ([3]; inhibitor 5 μmol/L pre-treatment, ADP 10 μmol/L): significantly restored platelet aggregation levels

SMILES: O=c1c2nc(Br)n([C@@H]3O[C@@H]4CO[P@@](O)(=S)O[C@H]4[C@H]3O)c2nc2[nH]c(-c3ccccc3)cn12 [Rp-8-Br-PET-cGMPS, Rp-8-Bromo-β-phenyl-1, N2-ethenoguanosine 3´, 5´-cyclic mono-phosphorothioate sodium salt]
- naringenin-induced phosphorylation of VASP at Ser239 after kinase inhibitor ([1]; inhibitor 30 μmol/L before treatment with naringenin): only small changes
- Aggregation (%) ([2]; Rp-8-Br-PET-cGMPS (30 μM)+ADP (10 μM)): 67.3% and 69.8% and 64.5% and 66.3% and 65.0% and 70.4%
- platelet aggregation when incubated with naringenin after kinase inhibitor ([3]; inhibitor 30 μmol/L preincubation, ADP 10 μmol/L): did not affect the final extent of platelet aggregation

SMILES: C[C@@H]1O[C@@H](O[C@H]2[C@H](Oc3cc(O)c4c(c3)O[C@H](c3ccc(O)cc3)CC4=O)O[C@H](CO)[C@@H](O)[C@@H]2O)[C@H](O)[C@H](O)[C@H]1O [Naringin, naringin, reference compound]
- Aggregation (%) ([4]; compound 100 μM): 56.0% and 55.8% and 53.6% and 54.0% and 60.0%
- Aggregation % of control ([4]; compound 100 μM, 100 µM): 97.5 % of control and 100.8 % of control and 93.6 % of control and 94.3 % of control and 104.8 % of control
- Aggregation (%) ([4]; compound 200 μM): 54.6% and 53.1% and 52.4% and 49.6% and 54.8%
- Aggregation % of control ([4]; compound 200 μM, 200 µM): 92.8 % of control and 97.1 % of control and 91.5 % of control and 86.6 % of control and 95.7 % of control
- Aggregation (%) ([4]; compound 400 μM): 55.9% and 54.0% and 46.2% and 49.8% and 51.2%
- Aggregation % of control ([4]; compound 400 μM, 400 µM): 96.9 % of control and 94.3 % of control and 80.7 % of control and 87.0 % of control and 89.4 % of control
- Aggregation (%) ([4]; compound 800 μM): 46.8% and 40.4% and 51.9% and 43.4%
- Aggregation % of control ([4]; compound 800 μM, 800 µM): 85.1 % of control and 85.9 % of control and 70.6 % of control and 90.7 % of control and 75.8 % of control
- activity at 100 µM ([4]; Rattus norvegicus, compound 100 μM, read-out: Aggregation % of control): 97.8%
- activity at 200 µM ([4]; Rattus norvegicus, compound 200 μM, read-out: Aggregation % of control): 95.4%
- activity at 400 µM ([4]; Rattus norvegicus, compound 400 μM, read-out: Aggregation % of control): 97.6%
- activity at 200 µM ([3]; Rattus norvegicus, Platelet, washed platelets, ADP 10 μmol/L, compound 200 μM, single replicates, read-out: Aggregation % of control): 72.6%
- activity at 400 µM ([3]; Rattus norvegicus, Platelet, washed platelets, ADP 10 μmol/L, compound 400 μM, single replicates, read-out: Aggregation % of control): 79.8%
- ADP-induced platelet aggregation (control group taken as 100%) ([3]; washed platelets, ADP 10 μM, compound 800 μM, mean ± SD, n = 6): 70.8 ± 7.1%
- Aggregation (%) ([3]; washed platelets, ADP 10 μmol/L, compound 100 μM, single replicates): 66.8% and 55.6% and 57.3% and 61.8% and 52.0% and 65.0%
- Aggregation % of control ([3]; washed platelets, ADP 10 μmol/L, compound 100 μM, single replicates, 100 µM): 94.6 % of control and 78.7 % of control and 81.1 % of control and 87.5 % of control and 73.6 % of control and 92.0 % of control
- Aggregation (%) ([3]; washed platelets, ADP 10 μmol/L, compound 200 μM, single replicates): 51.3% and 57.7% and 55.0% and 59.4% and 50.0% and 54.0%
- Aggregation % of control ([3]; washed platelets, ADP 10 μmol/L, compound 200 μM, single replicates, 200 µM): 81.7 % of control and 77.8 % of control and 84.1 % of control and 70.8 % of control and 76.4 % of control
- Aggregation (%) ([3]; washed platelets, ADP 10 μmol/L, compound 400 μM, single replicates): 56.4% and 55.5% and 55.4% and 51.0% and 52.3% and 46.6%
- Aggregation % of control ([3]; washed platelets, ADP 10 μmol/L, compound 400 μM, single replicates, 400 µM): 78.6 % of control and 78.4 % of control and 72.2 % of control and 74.0 % of control and 66.0 % of control
- Aggregation (%) ([3]; washed platelets, ADP 10 μmol/L, compound 800 μM, single replicates): 58.1% and 48.7% and 49.2% and 43.6% and 47.5% and 53.0%
- Aggregation % of control ([3]; washed platelets, ADP 10 μmol/L, compound 800 μM, single replicates, 800 µM): 82.2 % of control and 68.9 % of control and 69.6 % of control and 61.7 % of control and 67.2 % of control and 75.0 % of control

Source: PMC8406801, “Naringenin Inhibits Platelet Activation and Arterial Thrombosis Through Inhibition of Phosphoinositide 3-Kinase and Cyclic Nucleotide Signaling” (Frontiers in Pharmacology, 2021)
